Laboratory results published in patent US20100184790A1, “PYRROLO[2,3-B]PYRIDINE COMPOUNDS, AZAINDOLE COMPOUNDS USED FOR SYNTHESIZING SAID PYRROLO[2,3-B]PYRIDINE COMPOUNDS, METHODS FOR THE PRODUCTION THEREOF, AND USES THEREOF” (CENTRE NATIONAL DE LA RECHERCHE SCIENTIFIQUE, priority 2007, published 2010).
Where two headings read alike, the source gives them in different places.

How the values were obtained:
SH-SY5Y cells = test: Cell survival, MTS reduction, SH-SY5Y; assay type: cell-based; conditions: Homo sapiens
Procedure: The human neuroblastoma cell line SH-SY5Y was grown in a DMEM medium with L-glutamine originating from Invitrogen (Cergy Pontoise, France), antibiotics and 10% by volume of FCS originating from Invitrogen. […] These compounds were also tested at various concentrations with regard to their effects on SH-SY5Y and HEK293 cells. […] The IC50 values were calculated from the dose-response curves and are given in micromoles (mean±standard deviation of two independent measurements carried out in triplicate). […] The survival of the cells was estimated by the assaying of the degree of reduction of MTS induced by this exposure. […] The ICS© values were calculated from dose-response curves and are given in micromoles in table 3 below.

DYRK1A = DYRK1A (Rattus norvegicus, UniProt Q63470); test: DYRK1A kinase assay (myelin basic protein); assay type: biochemical; conditions: 15 μM ATP, 30° C., myelin basic protein; read-out: IC50 DYRK1A
protein kinase hSGK1 = target: T1, protein kinase hSGK1 (Homo sapiens, UniProt O00141); conditions: from Angew. Chem. Int. Ed., 2005, 44, 6951-6956; cited from earlier work
T1 sequence (O00141 1-431): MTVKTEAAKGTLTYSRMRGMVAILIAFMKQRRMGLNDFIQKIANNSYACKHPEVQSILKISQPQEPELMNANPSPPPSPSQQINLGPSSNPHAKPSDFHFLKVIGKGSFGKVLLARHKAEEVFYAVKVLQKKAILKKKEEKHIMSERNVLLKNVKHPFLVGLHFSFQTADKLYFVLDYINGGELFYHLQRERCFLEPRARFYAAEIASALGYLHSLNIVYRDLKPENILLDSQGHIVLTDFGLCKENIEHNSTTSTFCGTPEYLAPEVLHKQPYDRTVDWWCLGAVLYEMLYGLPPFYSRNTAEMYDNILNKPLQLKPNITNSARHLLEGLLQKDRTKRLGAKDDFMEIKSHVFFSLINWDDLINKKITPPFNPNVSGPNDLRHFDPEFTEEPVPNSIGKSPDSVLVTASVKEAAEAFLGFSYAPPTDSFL

MDA-MB-231 (breast) = test: Cell survival, MTS reduction, MDA-MB-231; assay type: cell-based; conditions: Homo sapiens, forty eight hours after addition, read-out: Survival of the cells (IC50, μM) (MTS reduction) MDA-MB-231 (breast)
Procedure: (§1) The viability of the cells was determined by measuring the reduction of 3-(4,5-dimethylthiazol-2-yl)-5-(3-carboxymethoxyphenyl)-2-(4-sulfophenyl)-2H/tetrazolium (MTS). The procedure was such as described in detail in Ribas J. et al., 2004, “Cell differentiation, caspase inhibition, and macromolecular synthesis blockage, but not BCL-2 or BCL-XL proteins, protect SH-SYS5 cells from apoptosis triggered by two CDK inhibitory drugs”, Exp. Cell Res., 2004, 195, 9-24.
(§2) The effects of meriolins 2 and 3 on the survival of various cell lines were also tested at various concentrations in order to determine their effects on eight different cell lines. The survival of the cells was expressed forty eight hours after the addition of each meriolin, using the MTS reduction test. The ICS© values were calculated from dose-response curves and are given in micromoles in table 3 below.

Huh7 (hepatoma) = test: Cell survival, MTS reduction, Huh7; assay type: cell-based; conditions: Homo sapiens, Huh-7; forty eight hours after addition; read-out: Survival of the cells (IC50, μM) (MTS reduction) Huh7 (hepatoma)
Procedure: as §1, §2

[1] = test system: Human foreskin fibroblasts; test: Cell survival, MTS reduction, human foreskin fibroblasts; assay type: cell-based; conditions: Fibroblast, forty eight hours after addition, read-out: Survival of the cells (IC50, μM) (MTS reduction) Human foreskin fibroblasts
Procedure: as §1, §2

GSK-3α/β = GSK-3α/β kinase assay (GS-1 peptide); assay type: biochemical, porcine; conditions: 15 μM ATP, 30° C.
Procedure: After incubating at 30° C. for 30 (thirty) minutes, the 25 μl aliquots of the supernatant were treated as described above.

PC3 (prostate) = test: Cell survival, MTS reduction, PC3; assay type: cell-based; conditions: forty eight hours after addition; read-out: Survival of the cells (IC50, μM) (MTS reduction) PC3 (prostate)
Procedure: as §1, §2

F1 (hepatoma) = test: Cell survival, MTS reduction, F1; assay type: cell-based; conditions: forty eight hours after addition; read-out: Survival of the cells (IC50, μM) (MTS reduction) F1 (hepatoma)
Procedure: as §1, §2

CK1δ/ε = CK1δ/ε kinase assay (CK1-specific peptide); assay type: biochemical, porcine; conditions: 15 μM ATP, 30° C.
Procedure: CK1δ/ε was purified from porcine brain by affinity chromatography on an immobilized axin fragment. It was assayed as described for CDK1 but using a CK1-specific peptide substrate.

CDK1/cyclin B = CDK1/cyclin B kinase assay (histone H1, [γ-33P]-ATP); conditions: read-out: IC50 CDK1/cyclin B, 15 μM ATP, 30° C.
[2] = test system: HEK293 (embryonic kidney); test: Cell survival, MTS reduction, HEK293; assay type: cell-based; conditions: Homo sapiens, forty eight hours after addition, read-out: Survival of the cells (IC50, μM) (MTS reduction) HEK293 (embryonic kidney)
Procedure: The HEK293 cells were grown in an MEM medium with Glutamax originating from Invitrogen, antibiotics and 10% by volume of FCS.
as §1
The effects of meriolins 2 and 3 on the survival of various cell lines were also tested at various concentrations in order to determine their effects on eight different cell lines. […] The ICS© values were calculated from dose-response curves and are given in micromoles in table 3 below.

HCT116 (colon) = test: Cell survival, MTS reduction, HCT116; assay type: cell-based; conditions: Homo sapiens, HCT-116; forty eight hours after addition; read-out: Survival of the cells (IC50, μM) (MTS reduction) HCT116 (colon)
Procedure: as §1, §2

A4573 cells xenograft = test: In vivo antitumor activity, A4573 xenograft; design: species or system athymic male nude mice; conditions: 50 mg/kg intraperitoneal once daily, versus control
Procedure: Athymic male nude mice (aged from 5 to 6 weeks) were obtained from the National Cancer Institute. The mice were housed in the animal facility of the Division of Comparative Medicine of Georgetown University. All the studies on the animals were carried out under protocols approved by the Animal Care and Use Committee of Georgetown University. The mice were inoculated by subcutaneous injection into the right posterior flank with 4×10^6 A4573 cells in 100 μl of Matrigel basic membrane matrix (Becton Dickinson). Xenografts were grown to a mean tumor volume of 129±30 mm^3. The compounds tested were first dissolved in either absolute methanol or DMSL (1 volume). A carrier solution was produced using a diluent containing 10% Tween 80, 20% N—N-dimethylacetamide and 70% polyethylene glycol 400 (Fisher Scientific, Pittsburgh, Pa.). The mice were randomly divided into two groups (six animals per group) and the treatment was initiated. […] At these times, the tumors were removed, measured and prepared for TUNEL assays. The primary tumor volumes were calculated by the formula V=(1/2)a×b^2, where a is the longest tumor axis and b is the shortest tumor axis. The values are given in the form of mean±standard deviation values in quantitative experiments. […]

[3] = 8 h, Table 3, forty eight hours after addition, read-out: Survival of the cells (IC50, μM) (MTS reduction) SH-SY5Y (neuroblastoma)
[4] = Table 2, exposed for 24 hours, read-out: IC50 survival of SH-SY5Y cells (MTS reduction)

Row | IC50 (DYRK1A) | IC50 (GSK-3α/β) | IC50 (CK1δ/ε) | IC50 (CDK1/cyclin B) | SMILES | IC50 (SH-SY5Y cells; 24 h, read-out: IC50 survival of SH-SY5Y cells (MTS reduction)) | IC50 (protein kinase hSGK1) | IC50 (MDA-MB-231 (breast)) | IC50 (Huh7 (hepatoma)) | IC50 [1] | IC50 (PC3 (prostate)) | IC50 (F1 (hepatoma)) | IC50 (SH-SY5Y cells; [3]) | IC50 (SH-SY5Y cells; [4]) | IC50 [2] | IC50 (HCT116 (colon)) | mean tumor volume over time (FIG. 3) (A4573 cells xenograft)
1 | 35 nM | 400 nM | 50 nM | 57 nM | Nc1nccc(-c2c[nH]c3nccc(O)c23)n1 [Meriolin 2, 3-[(2-amino)pyrimidin-4-yl]-4-hydroxy-1H-pyrrolo[2,3-b]pyridine] |  |  | 1.8 µM | 1 µM | 20 µM | 17.3 µM | 2 µM | 0.41 µM | 0.41 µM | 2.6 µM | 0.08 µM | 
2 | 29 nM | 230 nM | 200 nM | 170 nM | COc1ccnc2[nH]cc(-c3ccnc(N)n3)c12 [Meriolin 3, 3-[(2-amino)pyrimidin-4-yl]-4-methoxy-1H-pyrrolo[2,3-b]pyridine] |  |  | 19 µM | 0.12 µM | 8 µM | 95 µM | 0.26 µM | 0.072 µM | 0.073 µM | 0.38 µM | 0.94 µM | only increases slightly over time

Row | SMILES | IC50 (DYRK1A) | IC50 (GSK-3α/β) | IC50 (CK1δ/ε) | IC50 (CDK1/cyclin B) | IC50 (SH-SY5Y cells; 24 h, read-out: IC50 survival of SH-SY5Y cells (MTS reduction)) | IC50 (protein kinase hSGK1) | IC50 (MDA-MB-231 (breast)) | IC50 (Huh7 (hepatoma)) | IC50 [1] | IC50 (PC3 (prostate)) | IC50 (F1 (hepatoma)) | IC50 (SH-SY5Y cells; [3]) | IC50 (SH-SY5Y cells; [4]) | IC50 [2] | IC50 (HCT116 (colon)) | mean tumor volume over time (FIG. 3) (A4573 cells xenograft)
3 | Nc1nccc(-c2c[nH]c3ncccc23)n1 [Meriolin 1, 3-[(2-amino)pyrimidin-4-yl]-1H-pyrrolo[2,3-b]pyridine, reference compound] | 130 nM |  |  |  | 0.67 µM | 2400 nM |  |  |  |  |  |  |  |  |  | 
